According to patent publication US9597402B2, “Sustained release small molecule drug formulation” (DURECT CORPORATION, priority 2005, dated 2017):

Assays:
[1] = Intrinsic dissolution rate; assay type: physicochemical
From the text: (§1) In one embodiment, a small molecule drug formulation includes a small molecule psychotherapeutic drug, such as a small molecule antipsychotic, dopamine receptor agonist, dopamine receptor antagonist, serotonin receptor agonist, serotonin receptor antagonist, and serotonin uptake inhibitor drug. […] R209130-base has the molecular formula C19H20FNO. R209130-mandelic acid salt (R209130) has the molecular formula C19H20FNO.C8H8O3. R209130-tartaric acid salt (R167154) has the molecular formula C19H20FNO.C4H6O6.

[2] = Solubility in benzyl alcohol (BA); conditions: temperature not given
From the text: as §1

[3] = Solubility in H2O; conditions: pH 7.2
From the text: as §1

[4] = Solubility in benzyl benzoate (BB); conditions: temperature not given
From the text: as §1

[5] = Solubility at pH 7; conditions: cell states pH 7.2
From the text: as §1

SMILES	Intrinsic dissolution rate [1] [mg/cm^2 · min]	Solubility in BA [2] [µg/mL]	Solubility in H2O [3]	Solubility in BB [4] [µg/mL]	Solubility at pH 7 [5]
Cc1nc2n(c(=O)c1CCN1CCC(c3noc4cc(F)ccc34)CC1)CCCC2 [Risperidone base, Risperidone]	0.0025	–	–	–	–
Cc1nc2n(c(=O)c1CCN1CCC(c3noc4cc(F)ccc34)CC1)CCCC2 [Risperidone pamoate, Risperidone-pamoate]	–	2970	0.2 (pH 7.2) mg/ml	50	0.2 (pH 7.2) mg/ml
